The source of these data is US20250034520A1, “INCREASING DEVELOPMENTAL POTENTIAL OF HUMAN PREIMPLANTATION EMBRYOS BY REDUCING GENETIC INSTABILITY, ANEUPLOIDIES AND CHROMOSOMAL MOSAICISM” (THE TRUSTEES OF COLUMBIA UNIVERSITY IN THE CITY OF NEW YORK, priority 2022, published 2025).

Experiment [1] relates to human zygotes and parthenotes. Description: timing of mitotic entry in human zygotes and parthenotes. Type of experiment: cell-based. As to conditions: for mitotic entry: human parthenotes. The protocol:
(§1) Embryos, mouse and human, were cultured in Global Total (Life-Global) for the duration of the experiments and with added compounds as outlined below. Incubation in RNA polymerase inhibitors triptolide (1 mM) or alpha amanitin (20 mg/ml) was performed from the 2PN stage (day1) to day3 of human development. Incubation in aphidicolin was performed at 2 mM. […] Mirin was used at a concentration of 50 mM. Olaparib was used to inhibit PARP at a concentration of 10 mM. All experiments were conducted during incubation at 37° C. with 5% CO2 and 19-20% O2. Chemical stock solutions were prepared in DMSO at concentrations at least 1000× higher than the final concentration.
Artificial activation of human MII oocytes was performed using two pulses of 2.7 kV/cm at 50 ms using ECFG21 (Nepagene) in fusion buffer consisting of 0.25 M d-sorbitol buffer containing 0.1 mM calcium acetate, 0.5 mM magnesium acetate, 0.5 mM HEPES, and 1 mg ml^−1 fatty-acid-free BSA as previously described (Tachibana et al., 2013). Thereafter, oocytes were incubated for 3.5-4 h in 10 mg/ml puromycin, followed by a wash step and following culture in Global total.

In the next experiment the test system is mouse 2-cell embryos. Description: single-cell sequencing chromosome content analysis, mouse 2-cell embryos. Type of experiment: cell-based. As to the method:
as §1
Single cells from blastomeres were collected on the heated stage (Tokai Hit) of an Olympus IX71 inverted microscope equipped with Narishige micromanipulators and a zona pellucida laser (Hamilton-Thorne). Single nuclei were isolated from blastomeres by lysis and dissection of different nuclei using two […] diameter Piezo micropipettes and Holding pipette (Origio). Single embryo cells or nuclei were placed manually in single wells of a 96-well plate containing 9 ml of lysis buffer, prepared as a master mix of 798 ml H2O, 6 ml of 10 mg/mL Proteinase K solution (Sigma-Aldrich), and 96 ml 10× Single Cell Lysis and Fragmentation buffer (Sigma-Aldrich). Single cells/single nuclei were lysed by heating 96-well plates containing single cells/single nuclei at 50° C. for 1 hour, followed by incubation at 99° C. for four minutes using a PCR thermocycler. Single-cell/single-nuclei whole genome amplification (WGA) using degenerate oligo-nucleotide priming PCR (DOP-PCR) was performed using the SEQPLEX Enhanced DNA Amplification Kit (SEQXE, Sigma) according to the manufacturer's instructions. In addition, a modified version of the DOP-PCR protocol that allows inline indexing of WGA DNA was also applied. WGA DNA was subsequently processed for Illumina library sequencing preparation using standard TruSeq indexing methods via the NEBNext Ultra II DNA Library Prep Kit for Illumina (New England Biolabs). NEBNext Multiplex Oligos for Illumina (96 index primers) were used for four amplification cycles. Library DNA was quantified using Qubit dsDNA HS Assay Kit (Invitrogen, Carlsbad, CA, USA) and library size distribution was confirmed using a 2100 Bioanalyzer DNA 1000 Kit (Agilent, Santa Clara, CA, USA). A unimodal curve centered around 300-500 bp was scored as a successful library preparation. Subsequently, 30 mL of each pooled library was sent for sequencing at a concentration of 20 ng/ml. Mutiplex sequencing was performed using Illumina HiSeq 2500 single end indexed run (SR100) while targeting a coverage of approximately 1 million reads per cell/nuclei, sufficient for quantitative genome-wide copy number analysis.
Analysis of DNA sequencing data was performed as previously described (Baslan et al., 2015) with minor modifications as outlined below. Briefly, multiplex sequencing data were demultiplexed according to unique barcodes with reads assigned to their respective single-cell or single-nuclei. Unique reads were aligned to the reference human and mouse genome builds, hg19 and mm9, respectively. Each genome was partitioned into 5000 bins using a previously described algorithm (Varbin) that corrects for genome sequence mappability (Baslan et al., 2012; Navin et al., 2011). Uniquely mapped reads were sorted, indexed and subsequently counted within the partitioned genomic bins. For single-cell copy number inference, read count data were normalized genome-wide followed by CBS segmentation (Olshen et al., 2004) and transformed into integer copy number states using a least-squares fit approach (Baslan et al., 2015).

The mark [2] stands for this setting: combined aphidicolin exposure and G2 checkpoint inhibition.

Entries after “also recorded” stand apart in the source; their conditions may differ.

Regarding `C[C@@]1(CO)[C@H](O)CC[C@@]2(C)[C@H]1CC[C@H]1C[C@@H]3C[C@@]12CC[C@]3(O)CO` [aphidicolin], the mitotic entry result in experiment [1] (incubation at 14 h) is reported as “prevented mitotic entry”; in experiment [1] (incubation at 15.5 h, compared with controls) it was “allowed mitotic entry with a delay”. The mitotic entry timing entry in experiment [1] (human, incubation at 18 h) is listed as “no effects; also recorded: did not delay”. The “chromosomal abnormalities per cell” value with mouse 2-cell embryos (aphidicolin-treated) amounted to 0.62 per cell. Further, the blastomeres showing aneuploidy in the experiment on mouse 2-cell embryos (aphidicolin-treated, controls 98% normal) came out at 33%; in the experiment on mouse 2-cell embryos (combination of aphidicolin and G2 checkpoint inhibition), 64.5%. Moreover, the aneuploidies per cell with mouse 2-cell embryos (both aphidicolin and G2 checkpoint inhibitor) turned out to be 2.1 per cell. In addition, the “chromosomes with aneuploidies per cell” value with mouse 2-cell embryos (setting [2]) was 2 chromosomes per cell. The “euploid mouse 2-cell embryos” value in the experiment with mouse 2-cell embryos (setting [2]) is given as 35.5%.
